Among the data in ChEMBL document CHEMBL4376850, “1-Benzylpyrrolidine-3-amine-based BuChE inhibitors with anti-aggregating, antioxidant and metal-chelating properties as multifunctional agents against Alzheimer's disease” (Eur J Med Chem, 2020) are inhibition, Activity and IC50 values, retold here.

Activity calls are given as the source filed them. The calls are words filed in the database; no cut-off is given here. Bounds are passed on as bounds.

Test [1] deals with Cholinesterase (Equus caballus) (UniProt P81908). As to the kind of experiment: Inhibition of equine serum BuChE at 10 uM using butyrylthiocholine chloride as substrate pre-incubated for 5 mins followed by substrate addition and measured after 5 mins by Ellman's method relative to control.
The next test concerns the target Beta-secretase 1 (Homo sapiens, UniProt P56817). The conditions noted are these: 50 uM.
In test [2] the target is Acetylcholinesterase (Electrophorus electricus) (UniProt O42275). The test can be described thus: Inhibition of Electrophorus electricus AChE at 10 uM using acetylthiocholine iodide as substrate preincubated for 5 mins followed by substrate addition and measured after 5 mins by Ellman's method relative to control.
Test [3] has as its target Amyloid-beta precursor protein (Homo sapiens) (UniProt P05067). The conditions noted are these: at 10 µM.
Description: Inhibition of amyloid beta (1 to 42) (unknown origin) aggregation at 10 uM expressed in Escherichia coli BL21 (DE3) incubated for 24 hrs by thioflavin T-based fluorometric assay relative to control
For test [4], the target named is Microtubule-associated protein tau (Homo sapiens) (UniProt P10636). As to the kind of experiment: Inhibition of tau aggregation (unknown origin) at 10 uM expressed in Escherichia coli BL21 (DE3) incubated for 24 hrs by thioflavin T-based fluorometric assay relative to control.
The nature of test [5]: Antioxidant activity assessed as increase in total ferric ion reducing activity at 75 uM using FeCl3.H2O and TPTZ incubated for 60 mins by FRAP assay relative to control. Set-up: scale not given: the % may be the effect or the level left. Type of test: functional.
A short description of test [6]: Antioxidant activity assessed as increase in total ferric ion reducing activity at 150 uM using FeCl3.H2O and TPTZ incubated for 5 mins by FRAP assay relative to control. Set-up: scale not given: the % may be the effect or the level left. Type of test: functional.
Test [7] is described as follows: Antioxidant activity assessed as ABTS radical scavenging activity at 150 uM measured after 30 mins by spectrophotometric assay relative to control. Type of test: functional.
A short description of test [8]: Antioxidant activity assessed as ABTS radical scavenging activity at 30 uM measured after 30 mins by spectrophotometric assay relative to control. Type of test: functional.
The nature of test [9]: Antioxidant activity assessed as ABTS radical scavenging activity at 75 uM measured after 60 mins by spectrophotometric assay relative to control. Type of test: functional.
Test [10] is described as follows: Antioxidant activity assessed as increase in total ferric ion reducing activity at 30 uM using FeCl3.H2O and TPTZ incubated for 5 mins by FRAP assay relative to control. Type of test: functional. Set-up: scale not given: the % may be the effect or the level left.
The nature of test [11]: Antioxidant activity assessed as ABTS radical scavenging activity at 75 uM measured after 5 mins by spectrophotometric assay relative to control. Type of test: functional.
A short description of test [12]: Antioxidant activity assessed as ABTS radical scavenging activity at 30 uM measured after 60 mins by spectrophotometric assay relative to control. Type of test: functional.
Test [13] in a line: Antioxidant activity assessed as increase in total ferric ion reducing activity at 75 uM using FeCl3.H2O and TPTZ incubated for 5 mins by FRAP assay relative to control. Type of test: functional. Set-up: scale not given: the % may be the effect or the level left.
Test [14] in a line: Antioxidant activity assessed as ABTS radical scavenging activity at 150 uM measured after 5 mins by spectrophotometric assay relative to control. Type of test: functional.
Test [15] is described as follows: Antioxidant activity assessed as ABTS radical scavenging activity at 30 uM measured after 5 mins by spectrophotometric assay relative to control. Type of test: functional.
Test [16] can be described thus: Antioxidant activity assessed as increase in total ferric ion reducing activity at 30 uM using FeCl3.H2O and TPTZ incubated for 30 mins by FRAP assay relative to control. Type of test: functional. Further details: scale not given: the % may be the effect or the level left.
The nature of test [17]: Antioxidant activity assessed as increase in total ferric ion reducing activity at 30 uM using FeCl3.H2O and TPTZ incubated for 60 mins by FRAP assay relative to control. Type of test: functional. Set-up: scale not given: the % may be the effect or the level left.
Test [18] can be described thus: Metal chelating activity assessed as Cu2+-compound complex formation at 50 uM after 30 mins by UV-Visible spectrophotometric method.
Test [19] can be described thus: Antioxidant activity assessed as ABTS radical scavenging activity at 75 uM measured after 30 mins by spectrophotometric assay relative to control. Type of test: functional.
Test [20] can be described thus: Antioxidant activity assessed as increase in total ferric ion reducing activity at 150 uM using FeCl3.H2O and TPTZ incubated for 30 mins by FRAP assay relative to control. Type of test: functional. Set-up: scale not given: the % may be the effect or the level left.
Test [21] is described as follows: Antioxidant activity assessed as increase in total ferric ion reducing activity at 75 uM using FeCl3.H2O and TPTZ incubated for 30 mins by FRAP assay relative to control. Type of test: functional. Set-up: scale not given: the % may be the effect or the level left.
Test [22] can be described thus: Antioxidant activity assessed as increase in total ferric ion reducing activity at 150 uM using FeCl3.H2O and TPTZ incubated for 60 mins by FRAP assay relative to control. Type of test: functional. Further details: scale not given: the % may be the effect or the level left.
Test [23] can be described thus: Antioxidant activity assessed as ABTS radical scavenging activity at 150 uM measured after 60 mins by spectrophotometric assay relative to control. Type of test: functional.
Another test deals with Cholinesterase (Equus caballus, UniProt P81908).
Sequence of Cholinesterase (P81908 whole entry): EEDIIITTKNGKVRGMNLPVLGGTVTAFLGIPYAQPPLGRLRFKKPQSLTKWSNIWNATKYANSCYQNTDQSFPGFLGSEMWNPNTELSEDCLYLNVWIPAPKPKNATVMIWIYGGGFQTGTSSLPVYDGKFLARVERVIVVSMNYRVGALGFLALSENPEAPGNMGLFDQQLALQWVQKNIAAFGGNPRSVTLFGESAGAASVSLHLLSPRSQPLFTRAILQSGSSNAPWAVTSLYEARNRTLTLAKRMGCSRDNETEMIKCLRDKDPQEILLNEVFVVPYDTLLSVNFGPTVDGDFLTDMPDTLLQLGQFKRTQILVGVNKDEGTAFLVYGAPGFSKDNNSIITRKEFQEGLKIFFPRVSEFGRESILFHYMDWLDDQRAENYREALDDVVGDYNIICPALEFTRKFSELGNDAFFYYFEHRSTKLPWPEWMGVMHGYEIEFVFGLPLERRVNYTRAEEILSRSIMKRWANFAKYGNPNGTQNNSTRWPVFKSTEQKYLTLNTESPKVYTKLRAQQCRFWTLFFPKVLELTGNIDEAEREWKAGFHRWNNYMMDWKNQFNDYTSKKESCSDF

Sequence of Microtubule-associated protein tau (Homo sapiens) (P10636 whole entry): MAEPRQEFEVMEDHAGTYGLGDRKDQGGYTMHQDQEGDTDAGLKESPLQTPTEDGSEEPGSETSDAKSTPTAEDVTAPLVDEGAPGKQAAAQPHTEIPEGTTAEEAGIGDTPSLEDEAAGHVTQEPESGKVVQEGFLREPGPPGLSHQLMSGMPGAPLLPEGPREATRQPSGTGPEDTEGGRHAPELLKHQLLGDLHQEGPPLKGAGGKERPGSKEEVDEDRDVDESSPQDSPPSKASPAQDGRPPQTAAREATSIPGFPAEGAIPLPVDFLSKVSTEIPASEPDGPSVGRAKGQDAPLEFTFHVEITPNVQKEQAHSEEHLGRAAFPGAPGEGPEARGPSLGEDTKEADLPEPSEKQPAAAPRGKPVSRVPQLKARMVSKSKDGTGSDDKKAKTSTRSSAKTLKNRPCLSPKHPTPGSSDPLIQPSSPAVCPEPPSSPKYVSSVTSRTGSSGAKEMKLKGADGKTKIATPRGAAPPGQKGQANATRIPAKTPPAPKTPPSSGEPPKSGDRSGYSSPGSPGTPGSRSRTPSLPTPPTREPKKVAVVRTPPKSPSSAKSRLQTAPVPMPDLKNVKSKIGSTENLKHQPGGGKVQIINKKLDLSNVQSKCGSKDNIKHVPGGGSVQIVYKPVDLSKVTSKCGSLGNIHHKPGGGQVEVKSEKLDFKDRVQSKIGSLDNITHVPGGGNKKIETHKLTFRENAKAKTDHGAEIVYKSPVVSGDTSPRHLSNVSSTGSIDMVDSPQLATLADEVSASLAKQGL
Sequence of Beta-secretase 1 (P56817 whole entry): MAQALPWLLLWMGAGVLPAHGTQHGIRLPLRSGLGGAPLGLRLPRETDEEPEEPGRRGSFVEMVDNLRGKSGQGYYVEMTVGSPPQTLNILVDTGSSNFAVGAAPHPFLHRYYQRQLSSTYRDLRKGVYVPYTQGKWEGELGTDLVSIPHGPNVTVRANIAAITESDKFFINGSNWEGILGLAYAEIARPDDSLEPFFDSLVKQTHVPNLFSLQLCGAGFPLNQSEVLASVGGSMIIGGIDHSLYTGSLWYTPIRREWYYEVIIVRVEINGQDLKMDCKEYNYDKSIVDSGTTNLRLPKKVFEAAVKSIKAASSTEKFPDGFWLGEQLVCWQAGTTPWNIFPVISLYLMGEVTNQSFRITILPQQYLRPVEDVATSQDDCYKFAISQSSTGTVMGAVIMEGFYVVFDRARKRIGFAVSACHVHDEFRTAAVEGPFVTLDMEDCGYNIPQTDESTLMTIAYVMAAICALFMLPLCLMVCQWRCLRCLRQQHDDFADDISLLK
Sequence of Acetylcholinesterase (Electrophorus electricus) (O42275 24-633 limits assumed): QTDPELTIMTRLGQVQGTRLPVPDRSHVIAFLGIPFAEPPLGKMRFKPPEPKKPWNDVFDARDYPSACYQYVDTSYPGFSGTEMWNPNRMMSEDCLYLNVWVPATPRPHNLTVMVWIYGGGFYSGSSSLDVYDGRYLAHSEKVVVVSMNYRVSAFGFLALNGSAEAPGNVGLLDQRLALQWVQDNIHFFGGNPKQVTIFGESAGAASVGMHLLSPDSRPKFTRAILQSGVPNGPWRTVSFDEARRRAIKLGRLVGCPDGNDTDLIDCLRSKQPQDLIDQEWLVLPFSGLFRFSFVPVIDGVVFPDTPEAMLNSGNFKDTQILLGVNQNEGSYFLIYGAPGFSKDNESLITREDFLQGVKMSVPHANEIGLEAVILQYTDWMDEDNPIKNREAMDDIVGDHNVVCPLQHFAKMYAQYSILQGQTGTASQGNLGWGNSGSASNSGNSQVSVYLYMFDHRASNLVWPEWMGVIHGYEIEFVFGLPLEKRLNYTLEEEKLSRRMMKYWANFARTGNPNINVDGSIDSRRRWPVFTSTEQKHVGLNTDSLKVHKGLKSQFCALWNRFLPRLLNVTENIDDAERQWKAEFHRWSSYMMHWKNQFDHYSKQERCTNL
Sequence of Amyloid-beta precursor protein (Homo sapiens) (P05067 whole entry): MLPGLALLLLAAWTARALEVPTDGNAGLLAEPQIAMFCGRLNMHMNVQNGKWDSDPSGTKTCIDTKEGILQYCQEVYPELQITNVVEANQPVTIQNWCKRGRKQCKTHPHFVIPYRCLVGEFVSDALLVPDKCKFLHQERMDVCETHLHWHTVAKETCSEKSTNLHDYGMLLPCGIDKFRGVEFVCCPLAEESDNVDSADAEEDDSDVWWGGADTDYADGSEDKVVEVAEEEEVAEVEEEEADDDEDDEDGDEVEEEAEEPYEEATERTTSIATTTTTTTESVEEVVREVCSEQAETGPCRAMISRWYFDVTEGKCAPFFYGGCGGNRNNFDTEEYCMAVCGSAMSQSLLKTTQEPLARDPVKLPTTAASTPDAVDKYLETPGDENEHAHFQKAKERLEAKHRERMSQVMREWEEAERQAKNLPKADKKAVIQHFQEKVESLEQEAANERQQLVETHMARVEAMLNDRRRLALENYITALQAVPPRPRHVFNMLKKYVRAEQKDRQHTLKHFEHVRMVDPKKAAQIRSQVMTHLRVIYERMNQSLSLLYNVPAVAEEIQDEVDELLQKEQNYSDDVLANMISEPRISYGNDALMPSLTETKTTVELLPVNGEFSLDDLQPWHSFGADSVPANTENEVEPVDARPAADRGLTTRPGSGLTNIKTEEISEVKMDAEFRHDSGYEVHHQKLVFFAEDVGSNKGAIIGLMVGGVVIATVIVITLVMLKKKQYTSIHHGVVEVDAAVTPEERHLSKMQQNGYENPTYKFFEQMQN
Sequence of Cholinesterase (Equus caballus) (P81908 whole entry): as the sequence (P81908 whole entry) above

Regarding `O=C(CN1CCN(CCc2ccccc2)CC1)NC1CCN(Cc2ccccc2)C1` (stereo unspecified), the inhibition in test [1] is 15.3%; against Beta-secretase 1, 48.6%; in test [2], under 10%; in test [3], 15.2%; in [4], 61.3%.

Regarding `c1ccc(CN2CCC(NCCN3CCC(c4ccccc4)CC3)C2)cc1` (stereo unspecified), the Activity stood at 6% in test [5]; 10% in test [6]; 75% in test [7]; 24% in test [8]; 48% in test [9]; 2% in test [10]. Besides, the Activity in [11] came to 15%; in test [12], 31%; in test [13], 0%; in test [14] it was 37%; in test [15], 13%; in test [16], 3%. The Activity in [17] was 3%; in [19], 39%; in test [20], 6%; in test [21], 4%; in test [22] it was 8%; in test [23], 84%. The inhibition in test [1] was 45.5%; against Beta-secretase 1, 11.8%; in test [2] it was under 10%; in [3] it was 37.4%; in test [4] it was 68.1%. Moreover, the result in test [18] was Active.

For `O=C(CN1CCN(Cc2ccccc2)CC1)NC1CCN(Cc2ccccc2)C1` (stereo unspecified), the inhibition in [1] was 17.8%; at Beta-secretase 1, 40.7%; in test [2] it was under 10%; in test [3], 37.4%; in test [4], 66.7%.

`O=C(CN1CCC(c2ccccc2)CC1)NC1CCN(Cc2ccccc2)C1` (stereo unspecified): the inhibition in [1] is 33.3%; against Beta-secretase 1, 48.4%; in test [2], under 10%; in [3], 43.7%; in test [4], 53.6%. Also, the outcome in test [18] was Active.

For `c1ccc(CN2CCC(NCCN3CCN(c4ccccc4)CC3)C2)cc1` (stereo unspecified), the Activity in test [5] was determined as 68%; in [6], 55%; in test [7], 98%; in [8] it was 71%; in test [9], 85%; in [10] it was 15%. Also, the Activity turned out to be 50% in test [11]; 80% in [12]; 23% in test [13]; 76% in [14]; 42% in [15]; 39% in test [16]. The Activity in test [17] amounted to 55%; in test [19], 78%; in [20] it was 68%; in test [21], 54%; in [22] it was 79%; in [23] it was 99%. Besides, the inhibition in test [1] was 23.9%; at Beta-secretase 1, 40.7%; in [2], under 10%; in test [3], 38.5%; in test [4], 79.5%. Besides, in test [18], the result was Active.

Take `Cc1c(C)c2c(c(C)c1O)CCC(C)(C(=O)O)O2` (stereo unspecified): the Activity in [5], in test [6], in [7], in [8], in test [9] and in test [10] was 100% throughout. Moreover, the Activity in test [11], in [12], in [13], in [14], in test [15] and in test [16] was 100% throughout. Further, the Activity in [17], in [19], in test [20], in test [21], in test [22] and in [23] was 100% each time.

Turning to `O=C(CN1CCCC(CCc2ccccc2)C1)NC1CCN(Cc2ccccc2)C1` (stereo unspecified), the inhibition on Beta-secretase 1 was found to be 28.8%; in [2], 26.7%. Further, half-maximal inhibition at Cholinesterase (IC50) required 10.3 µM.

`O=C(CN1CCC(CCc2ccccc2)CC1)NC1CCN(Cc2ccccc2)C1` (stereo unspecified): the inhibition in test [1] is 33.1%; on Beta-secretase 1 it was 50.5%; in [2], under 10%; in test [3] it was 48.3%; in test [4], 53.5%.

For `O=C(CN1CCCC(c2ccccc2)C1)NC1CCN(Cc2ccccc2)C1` (stereo unspecified), the inhibition in test [1] amounted to 46%; at Beta-secretase 1, 14.7%; in [2], 30.6%; in test [3], 38.8%; in test [4] it was 43.6%.

`O=C(CCN1CCC(CCc2ccccc2)CC1)NC1CCN(Cc2ccccc2)C1` (stereo unspecified): the inhibition in [1] is 16.3%; on Beta-secretase 1, under 10%; in [2] it was 32.9%; in test [3] it was 47.8%; in test [4], 57.9%.

For `O=C(CN1CCN(C(c2ccccc2)c2ccccc2)CC1)NC1CCN(Cc2ccccc2)C1` (stereo unspecified), the inhibition in [1] is under 10%; at Beta-secretase 1, 40%; in test [2], under 10%; in test [3], 27.9%; in [4], 61.2%.

Take `O=C(CN1CCN(c2ccccc2)CC1)NC1CCN(Cc2ccccc2)C1` (stereo unspecified): the Activity in [5] is 60%; in test [6], 44%; in [7] it was 66%; in test [8], 50%; in [9], 59%; in test [10] it was 10%. Moreover, the Activity was found to be 23% in test [11]; 62% in test [12]; 14% in test [13]; 36% in [14]; 23% in test [15]; 33% in [16]. In addition, the Activity amounted to 49% in [17]; 49% in test [19]; 58% in test [20]; 44% in test [21]; 72% in test [22]; 76% in test [23]. The inhibition in test [1] is under 10%; against Beta-secretase 1, 43.7%; in test [2], under 10%; in test [3], 34.5%; in test [4] it was 74.8%.

`c1ccc(CCC2CCN(CCCNC3CCN(Cc4ccccc4)C3)CC2)cc1` (stereo unspecified): the inhibition in test [1] is 25.6%; against Beta-secretase 1 it was 17%; in test [2], 34.9%; in test [3], 36.3%; in test [4], 52.8%.

Turning to `O=C(CN1CCCC(Cc2ccccc2)C1)NC1CCN(Cc2ccccc2)C1` (stereo unspecified), the inhibition is under 10% at Beta-secretase 1, 27.6% in test [2], 45.1% in test [3] and 54.2% in [4]. It took 7 µM to reach half-maximal inhibition at Cholinesterase (IC50).

With `c1ccc(CCN2CCN(CCNC3CCN(Cc4ccccc4)C3)CC2)cc1` (stereo unspecified), the Activity in [5] was 18%; in test [6] it was 39%; in [7], 73%; in test [8], 28%; in test [9], 48%; in test [10] it was 8%. Also, the Activity in test [11] was found to be 22%; in [12], 34%; in [13], 5%; in [14], 46%; in test [15], 14%; in [16], 9%. In addition, the Activity in [17] is 10%; in [19], 41%; in test [20], 40%; in [21] it was 15%; in [22], 43%; in test [23] it was 82%. The inhibition in test [1] was 25.7%; on Beta-secretase 1 it was 33.5%; in test [2] it was under 10%; in [3], 34.7%; in [4], 59.6%.
